The text below walks through data of BindingDB's records for doi:10.1021/jm00073a015 (Institute, 1993).

Each structure is given as a SMILES string.

Test [1] in a line: Binding affinity against kappa opioid receptor from calf frontal cortex.
Test [2] in a line: Binding affinity against delta opioid receptor from calf frontal cortex.
The target of another test is Mu-type opioid receptor (Bos taurus, UniProt P79350). Description: ChEBML_136067. The source says: Binding affinity against mu opioid receptor from calf frontal cortex.
Sequence of Mu-type opioid receptor (P79350 whole entry): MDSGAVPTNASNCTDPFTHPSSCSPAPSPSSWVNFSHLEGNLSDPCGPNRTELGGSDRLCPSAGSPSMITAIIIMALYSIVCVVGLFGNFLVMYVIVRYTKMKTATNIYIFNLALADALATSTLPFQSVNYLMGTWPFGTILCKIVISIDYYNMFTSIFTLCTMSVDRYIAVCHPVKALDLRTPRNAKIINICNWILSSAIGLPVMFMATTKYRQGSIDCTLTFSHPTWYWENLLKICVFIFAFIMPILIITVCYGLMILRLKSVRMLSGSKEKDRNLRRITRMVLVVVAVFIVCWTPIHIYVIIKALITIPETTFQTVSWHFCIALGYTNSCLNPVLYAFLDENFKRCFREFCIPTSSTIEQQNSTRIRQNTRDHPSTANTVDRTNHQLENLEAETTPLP

As usually defined, the IC50 is the midpoint of a concentration-inhibition curve. As to `C[C@@]12Oc3c(O)ccc4c3C13CCN(CC1CC1)C(C4)[C@]3(NC(=O)CCc1ccc([N+](=O)[O-])cc1)CCC2=O` (stereo partly drawn) [1N-[4-cyclopropylmethyl-10-hydroxy-13-methyl-14-oxo-(13R,17S)-12-oxa-4-azapentacyclo[9.6.1.01,13.05,17.07,18]octadeca-7(18),8,10-trien-17-yl]-3-(4-nitrophenyl)propanamide], the IC50 in test [1] came out at 162 nM. This lies in the sub-micromolar range.

For `O=C(/C=C/c1ccc([N+](=O)[O-])cc1)N[C@@]12CCC(=O)[C@@H]3Oc4c(O)ccc5c4[C@@]31CCN(CC1CC1)[C@@H]2C5` [1N-[4-cyclopropylmethyl-10-hydroxy-14-oxo-(13R,17S)-12-oxa-4-azapentacyclo[9.6.1.01,13.05,17.07,18]octadeca-7(18),8,10-trien-17-yl]-4-(4-nitrophenyl)-(Z)-2-butenamide], the IC50 was determined as 12 nM in test [1] and 21 nM in test [2].

Take `CN1CC[C@]23c4c5ccc(O)c4O[C@H]2C(=O)CC[C@@]3(NC(=O)/C=C/c2ccc([N+](=O)[O-])cc2)[C@H]1C5`: the results for the IC50 in test [1] and in test [2] were 6.6 nM and 3.5 nM, respectively.

Take `COc1ccc2c3c1O[C@H]1C(=O)C=C[C@@]4(NC(=O)C=Cc5ccc([N+](=O)[O-])cc5)C(C2)N(C)CCC314` (stereo partly drawn) [1N-[10-methoxy-4-methyl-14-oxo-(13R,17S)-12-oxa-4-azapentacyclo[9.6.1.01,13.05,17.07,18]octadeca-7(18),8,10,15-tetraen-17-yl]-4-(4-nitrophenyl)-(Z)-2-butenamide]: the figures for the half-maximal inhibitory concentration (IC50) in test [1] and in test [2] were 68 nM and 46 nM, respectively.

For the compound `O=C(C=Cc1ccc([N+](=O)[O-])cc1)N[C@@]12C=CC(=O)[C@@H]3Oc4c(O)ccc5c4C31CCN(CC1CC1)C2C5` (stereo partly drawn) [1N-[4-cyclopropylmethyl-10-hydroxy-14-oxo-(13R,17S)-12-oxa-4-azapentacyclo[9.6.1.01,13.05,17.07,18]octadeca-7(18),8,10,15-tetraen-17-yl]-4-(4-nitrophenyl)-(Z)-2-butenamide], the half-inhibitory concentration (IC50) in test [1] was 11 nM; in test [2], 106 nM.

Take `C[C@@]12Oc3c(O)ccc4c3C13CCN(CC1CC1)C(C4)[C@]3(NC(=O)/C=C/c1ccc([N+](=O)[O-])cc1)CCC2=O` (stereo partly drawn) [1N-[4-cyclopropylmethyl-10-hydroxy-13-methyl-14-oxo-(13R,17S)-12-oxa-4-azapentacyclo[9.6.1.01,13.05,17.07,18]octadeca-7(18),8,10-trien-17-yl]-4-(4-nitrophenyl)-(Z)-2-butenamide]: the results for the IC50 in test [1] and in test [2] were 126 nM and 11 nM, respectively.

On to `CN1CCC23c4c5ccc(O)c4O[C@@]2(C)C(=O)CC[C@@]3(NC(=O)/C=C/c2ccc([N+](=O)[O-])cc2)C1C5` (stereo partly drawn) [1N-[10-hydroxy-4,13-dimethyl-14-oxo-(13R,17S)-12-oxa-4-azapentacyclo[9.6.1.01,13.05,17.07,18]octadeca-7(18),8,10-trien-17-yl]-4-(4-nitrophenyl)-(Z)-2-butenamide], for which the IC50 in test [1] was found to be 116 nM; in test [2], 51 nM.

For `COc1ccc2c3c1O[C@H]1C(=O)C=C[C@@]4(NC(=O)C=Cc5ccc([N+](=O)[O-])cc5)C(C2)N(CC2CC2)CCC314` (stereo partly drawn) [1N-[4-cyclopropylmethyl-10-methoxy-14-oxo-(13R,17S)-12-oxa-4-azapentacyclo[9.6.1.01,13.05,17.07,18]octadeca-7(18),8,10,15-tetraen-17-yl]-4-(4-nitrophenyl)-(Z)-2-butenamide], the IC50 in test [1] stood at 5 nM; against Mu-type opioid receptor it was 1.5 nM; in test [2] it was 54 nM.
